Results as given in publication PMC9841527 (Journal of Medicinal Chemistry, 2022).

Key:
[1] = biological target: T1, CamA (Clostridioides difficile, UniProt Q183J3); assay type: biochemical
T1 sequence (Q183J3 1-577): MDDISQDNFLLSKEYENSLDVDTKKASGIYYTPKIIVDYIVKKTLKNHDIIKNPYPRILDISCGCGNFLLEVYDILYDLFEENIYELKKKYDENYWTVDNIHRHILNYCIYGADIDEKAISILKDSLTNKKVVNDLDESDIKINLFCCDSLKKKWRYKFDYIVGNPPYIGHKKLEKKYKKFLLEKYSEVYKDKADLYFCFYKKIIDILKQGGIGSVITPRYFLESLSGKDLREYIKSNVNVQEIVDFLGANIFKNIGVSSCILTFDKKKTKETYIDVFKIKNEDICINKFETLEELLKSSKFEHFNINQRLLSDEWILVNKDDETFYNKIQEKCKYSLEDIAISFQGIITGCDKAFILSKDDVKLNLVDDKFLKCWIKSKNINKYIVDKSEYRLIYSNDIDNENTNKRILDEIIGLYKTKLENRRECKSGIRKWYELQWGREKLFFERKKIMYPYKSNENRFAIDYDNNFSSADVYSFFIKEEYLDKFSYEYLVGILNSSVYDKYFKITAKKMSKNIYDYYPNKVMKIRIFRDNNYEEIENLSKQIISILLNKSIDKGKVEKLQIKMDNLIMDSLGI

[2] = biological target: T1, CamA; assay: Isothermal titration calorimetry; assay type: binding
[3] = biological target: CcrM (Caulobacter vibrioides, UniProt P0CAW2); assay type: biochemical, Caulobacter crescentus
[4] = biological target: T2, Dam (Escherichia coli, UniProt P0AEE8); assay type: biochemical
T2 sequence (P0AEE8 1-278): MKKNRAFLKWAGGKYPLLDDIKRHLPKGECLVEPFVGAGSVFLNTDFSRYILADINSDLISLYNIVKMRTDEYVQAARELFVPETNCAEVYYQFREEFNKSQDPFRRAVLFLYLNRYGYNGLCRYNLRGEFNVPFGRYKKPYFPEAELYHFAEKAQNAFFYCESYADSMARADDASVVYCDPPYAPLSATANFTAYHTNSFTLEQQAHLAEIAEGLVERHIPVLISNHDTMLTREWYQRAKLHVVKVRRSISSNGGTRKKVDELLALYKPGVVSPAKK

[5] = biological target: DNMT1 (Homo sapiens, UniProt P26358); assay: Selectivity assay, DNMT1; assay type: biochemical; details: [I] = 10 μM, [SAM] = 5.5 μM, 37 °C
[6] = biological target: Dnmt3a-Dnmt3L (Mus musculus, UniProt O88508); assay type: biochemical
[7] = biological target: PCIF1 (Homo sapiens, UniProt Q9H4Z3); assay type: biochemical
[8] = biological target: MettL5-Trm112 (Homo sapiens, UniProt Q9NRN9); assay type: biochemical
[9] = biological target: MettL3-MettL14 (Homo sapiens, UniProt Q86U44); assay: Selectivity assay, MettL3-MettL14; assay type: biochemical; details: [I] = 10 μM, [SAM] = 20 μM, 5 mM NaCl, or CamA conditions
[10] = biological target: DOT1L (Homo sapiens, UniProt Q8TEK3); assay: Selectivity assay, DOT1L; assay type: biochemical; details: compound 10 μM, 3H-SAM 1 μM
[11] = biological target: EZH2 complex (Homo sapiens, UniProt Q15910); assay: Selectivity assay, EZH2 complex; assay type: biochemical; details: compound 10 μM, 3H-SAM 1 μM
[12] = biological target: T3, G9a (Homo sapiens, UniProt Q96KQ7); assay: Selectivity assay, G9a; assay type: biochemical; details: compound 10 μM, 3H-SAM 1 μM
T3 sequence (Q96KQ7 1-1210): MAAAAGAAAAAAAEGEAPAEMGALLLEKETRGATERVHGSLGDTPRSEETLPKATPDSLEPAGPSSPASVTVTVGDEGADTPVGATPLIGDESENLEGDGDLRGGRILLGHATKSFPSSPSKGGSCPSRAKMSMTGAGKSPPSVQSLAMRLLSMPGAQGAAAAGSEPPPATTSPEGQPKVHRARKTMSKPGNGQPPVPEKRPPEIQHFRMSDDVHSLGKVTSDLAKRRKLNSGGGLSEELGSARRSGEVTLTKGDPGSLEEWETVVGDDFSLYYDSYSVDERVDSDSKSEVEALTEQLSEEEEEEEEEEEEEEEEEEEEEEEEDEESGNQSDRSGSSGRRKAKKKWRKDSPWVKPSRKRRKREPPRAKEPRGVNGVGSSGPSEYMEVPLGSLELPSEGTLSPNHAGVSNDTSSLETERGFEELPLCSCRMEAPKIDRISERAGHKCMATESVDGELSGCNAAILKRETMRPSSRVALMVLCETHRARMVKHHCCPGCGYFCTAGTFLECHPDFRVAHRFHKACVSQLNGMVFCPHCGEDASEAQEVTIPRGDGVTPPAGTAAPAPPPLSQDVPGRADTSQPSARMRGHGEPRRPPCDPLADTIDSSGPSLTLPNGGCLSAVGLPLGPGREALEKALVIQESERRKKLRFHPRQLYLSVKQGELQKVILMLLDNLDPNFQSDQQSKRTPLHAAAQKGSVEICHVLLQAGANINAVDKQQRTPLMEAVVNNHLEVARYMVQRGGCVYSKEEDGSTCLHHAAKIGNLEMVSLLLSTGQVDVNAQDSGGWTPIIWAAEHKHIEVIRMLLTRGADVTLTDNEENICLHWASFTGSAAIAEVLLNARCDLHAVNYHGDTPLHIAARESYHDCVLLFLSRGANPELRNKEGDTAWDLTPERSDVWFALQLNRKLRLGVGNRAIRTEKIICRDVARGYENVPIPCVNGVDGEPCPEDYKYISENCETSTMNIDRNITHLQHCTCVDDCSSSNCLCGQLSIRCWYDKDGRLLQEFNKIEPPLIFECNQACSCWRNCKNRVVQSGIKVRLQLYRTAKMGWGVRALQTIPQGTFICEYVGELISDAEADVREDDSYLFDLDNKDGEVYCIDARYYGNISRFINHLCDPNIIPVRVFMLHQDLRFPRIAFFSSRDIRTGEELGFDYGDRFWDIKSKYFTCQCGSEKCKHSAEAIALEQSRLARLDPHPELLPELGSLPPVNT

Sequence of CcrM (P0CAW2 whole entry): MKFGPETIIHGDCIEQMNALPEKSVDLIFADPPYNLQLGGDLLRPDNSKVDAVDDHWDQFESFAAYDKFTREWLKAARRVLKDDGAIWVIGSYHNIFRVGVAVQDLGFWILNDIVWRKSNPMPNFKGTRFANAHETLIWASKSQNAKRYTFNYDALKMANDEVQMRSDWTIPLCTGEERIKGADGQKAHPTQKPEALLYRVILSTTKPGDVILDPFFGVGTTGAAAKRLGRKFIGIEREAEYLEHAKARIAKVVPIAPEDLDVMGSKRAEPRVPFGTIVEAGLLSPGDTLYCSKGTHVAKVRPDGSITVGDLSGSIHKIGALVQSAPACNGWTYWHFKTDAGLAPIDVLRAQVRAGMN
Sequence of DOT1L (Q8TEK3 whole entry): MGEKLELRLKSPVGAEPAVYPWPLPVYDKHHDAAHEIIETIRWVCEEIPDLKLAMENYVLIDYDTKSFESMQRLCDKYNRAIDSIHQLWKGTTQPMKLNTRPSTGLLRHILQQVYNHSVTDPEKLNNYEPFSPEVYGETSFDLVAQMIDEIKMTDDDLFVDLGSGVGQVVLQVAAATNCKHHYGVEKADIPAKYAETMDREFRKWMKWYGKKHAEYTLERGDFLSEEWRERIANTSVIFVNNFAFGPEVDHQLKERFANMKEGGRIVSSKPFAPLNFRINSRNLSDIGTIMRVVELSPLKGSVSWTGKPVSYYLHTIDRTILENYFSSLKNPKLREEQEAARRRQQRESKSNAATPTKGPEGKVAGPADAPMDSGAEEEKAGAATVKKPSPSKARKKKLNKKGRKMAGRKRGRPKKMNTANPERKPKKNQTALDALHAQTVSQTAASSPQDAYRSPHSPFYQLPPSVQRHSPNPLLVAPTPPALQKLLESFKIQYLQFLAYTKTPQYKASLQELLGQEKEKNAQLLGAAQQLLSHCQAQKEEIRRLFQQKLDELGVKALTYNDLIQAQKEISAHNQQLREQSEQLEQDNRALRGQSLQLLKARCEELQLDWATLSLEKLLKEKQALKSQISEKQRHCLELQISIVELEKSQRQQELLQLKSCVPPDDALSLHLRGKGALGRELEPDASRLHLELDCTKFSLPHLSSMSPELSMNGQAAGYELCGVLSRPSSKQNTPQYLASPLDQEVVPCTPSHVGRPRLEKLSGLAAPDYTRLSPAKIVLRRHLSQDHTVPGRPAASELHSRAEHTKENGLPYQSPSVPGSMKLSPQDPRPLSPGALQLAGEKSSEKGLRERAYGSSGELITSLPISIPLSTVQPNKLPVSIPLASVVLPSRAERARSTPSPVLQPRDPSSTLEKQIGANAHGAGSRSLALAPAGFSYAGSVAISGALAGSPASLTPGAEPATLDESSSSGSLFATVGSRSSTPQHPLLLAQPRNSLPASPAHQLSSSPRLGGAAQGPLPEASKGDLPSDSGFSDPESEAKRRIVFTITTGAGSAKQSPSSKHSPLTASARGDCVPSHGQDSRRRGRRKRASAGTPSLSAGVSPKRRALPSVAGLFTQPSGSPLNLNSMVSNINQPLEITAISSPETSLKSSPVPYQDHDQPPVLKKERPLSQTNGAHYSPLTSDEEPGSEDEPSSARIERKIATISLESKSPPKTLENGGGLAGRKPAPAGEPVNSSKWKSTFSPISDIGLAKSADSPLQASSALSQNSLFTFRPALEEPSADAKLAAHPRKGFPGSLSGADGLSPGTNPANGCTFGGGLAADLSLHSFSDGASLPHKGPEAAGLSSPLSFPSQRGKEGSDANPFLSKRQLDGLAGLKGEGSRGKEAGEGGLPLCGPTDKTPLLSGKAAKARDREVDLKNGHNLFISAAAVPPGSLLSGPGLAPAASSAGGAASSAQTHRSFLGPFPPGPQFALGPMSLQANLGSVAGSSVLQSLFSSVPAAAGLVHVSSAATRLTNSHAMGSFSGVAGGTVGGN
Sequence of PCIF1 (Q9H4Z3 whole entry): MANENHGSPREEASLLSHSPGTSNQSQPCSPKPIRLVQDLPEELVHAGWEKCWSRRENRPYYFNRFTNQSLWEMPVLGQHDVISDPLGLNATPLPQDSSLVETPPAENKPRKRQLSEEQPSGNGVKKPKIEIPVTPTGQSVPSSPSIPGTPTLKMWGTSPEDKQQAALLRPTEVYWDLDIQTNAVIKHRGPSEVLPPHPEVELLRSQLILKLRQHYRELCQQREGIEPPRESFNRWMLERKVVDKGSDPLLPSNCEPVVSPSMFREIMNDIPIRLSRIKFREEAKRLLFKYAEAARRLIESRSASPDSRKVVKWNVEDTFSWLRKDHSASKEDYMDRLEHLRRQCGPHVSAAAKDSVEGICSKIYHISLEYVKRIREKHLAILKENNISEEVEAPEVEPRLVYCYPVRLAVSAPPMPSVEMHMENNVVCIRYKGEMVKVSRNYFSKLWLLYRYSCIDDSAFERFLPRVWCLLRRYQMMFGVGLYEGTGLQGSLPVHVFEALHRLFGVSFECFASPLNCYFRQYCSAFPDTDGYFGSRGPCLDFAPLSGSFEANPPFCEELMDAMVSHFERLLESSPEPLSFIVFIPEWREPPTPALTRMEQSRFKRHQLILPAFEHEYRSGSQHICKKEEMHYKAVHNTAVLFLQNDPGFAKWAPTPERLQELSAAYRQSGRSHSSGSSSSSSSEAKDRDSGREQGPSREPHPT
Sequence of DNMT1 (P26358 351-1600): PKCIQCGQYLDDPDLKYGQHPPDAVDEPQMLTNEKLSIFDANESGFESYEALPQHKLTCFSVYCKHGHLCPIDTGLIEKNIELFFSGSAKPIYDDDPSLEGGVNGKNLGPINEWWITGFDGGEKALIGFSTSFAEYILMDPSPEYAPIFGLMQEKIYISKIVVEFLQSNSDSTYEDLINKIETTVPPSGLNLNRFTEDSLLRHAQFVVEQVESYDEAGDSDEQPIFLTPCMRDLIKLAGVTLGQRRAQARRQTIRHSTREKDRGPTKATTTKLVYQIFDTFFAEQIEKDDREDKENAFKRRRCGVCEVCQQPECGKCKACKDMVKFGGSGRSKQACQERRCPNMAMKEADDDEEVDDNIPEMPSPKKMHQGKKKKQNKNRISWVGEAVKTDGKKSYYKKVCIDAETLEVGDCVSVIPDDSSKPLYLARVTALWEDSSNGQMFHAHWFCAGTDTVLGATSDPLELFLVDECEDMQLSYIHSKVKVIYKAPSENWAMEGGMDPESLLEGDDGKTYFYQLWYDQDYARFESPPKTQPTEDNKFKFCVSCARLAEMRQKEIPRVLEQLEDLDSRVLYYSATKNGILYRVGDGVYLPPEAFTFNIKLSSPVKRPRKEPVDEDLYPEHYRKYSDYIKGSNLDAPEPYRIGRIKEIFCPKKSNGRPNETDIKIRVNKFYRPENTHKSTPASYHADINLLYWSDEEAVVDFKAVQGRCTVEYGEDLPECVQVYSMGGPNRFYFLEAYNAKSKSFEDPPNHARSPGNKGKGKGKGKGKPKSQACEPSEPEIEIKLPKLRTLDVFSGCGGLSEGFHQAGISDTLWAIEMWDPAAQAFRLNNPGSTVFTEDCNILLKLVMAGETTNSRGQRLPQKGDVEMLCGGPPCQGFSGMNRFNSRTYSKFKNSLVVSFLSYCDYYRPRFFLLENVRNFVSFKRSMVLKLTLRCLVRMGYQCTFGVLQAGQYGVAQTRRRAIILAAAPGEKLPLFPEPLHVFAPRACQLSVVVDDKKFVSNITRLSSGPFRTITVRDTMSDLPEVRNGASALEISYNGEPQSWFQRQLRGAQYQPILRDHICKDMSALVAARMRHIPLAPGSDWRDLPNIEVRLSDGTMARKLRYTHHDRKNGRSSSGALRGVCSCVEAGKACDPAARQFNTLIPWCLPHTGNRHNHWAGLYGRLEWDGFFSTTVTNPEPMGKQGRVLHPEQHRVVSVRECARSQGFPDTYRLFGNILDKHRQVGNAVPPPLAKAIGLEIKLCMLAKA
Sequence of MettL5-Trm112 (Q9NRN9 whole entry): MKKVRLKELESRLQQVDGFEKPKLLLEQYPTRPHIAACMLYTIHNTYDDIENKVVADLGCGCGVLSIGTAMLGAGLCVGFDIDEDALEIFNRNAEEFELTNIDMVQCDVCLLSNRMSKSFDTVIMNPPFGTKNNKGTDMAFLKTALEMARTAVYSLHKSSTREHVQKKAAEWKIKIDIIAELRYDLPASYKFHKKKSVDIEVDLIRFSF
Sequence of MettL5-Trm112 (Q9UI30 whole entry partner): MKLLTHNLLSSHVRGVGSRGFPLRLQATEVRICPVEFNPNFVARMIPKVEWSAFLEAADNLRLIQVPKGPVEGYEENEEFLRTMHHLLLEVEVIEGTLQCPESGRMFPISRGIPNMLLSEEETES

SMILES	lower IC50 value, fold [1]	lower KD value, fold ([2]; compared to compound 15)	inhibition of CcrM [3]	inhibition of Dam [4]	inhibition of DNMT1 [5]	inhibition of Dnmt3a-Dnmt3L [6]	inhibition of PCIF1 [7]	inhibition of MettL5-Trm112 [8]	inhibition of MettL3-MettL14 [9]	inhibition of DOT1L [10]	inhibition of EZH2 complex [11]	inhibition of G9a [12]	higher potency, fold [1]	Kd ([2]; KD ± SD, ITC, 25 °C)	KD improved, fold ([2]; from that of compound 37)
OC[C@H]1O[C@@H](n2cnc3c(NCCCc4ccc(O)cc4)ncnc32)[C@H](O)[C@@H]1O [Compound 16, (2R,3S,4R,5R)-2-(Hydroxymethyl)-5-(6-((3-(4-hydroxyphenyl)propyl)amino)-9H-purin-9-yl)tetrahydrofuran-3,4-diol]	~2.7 X	~6.5 X	none of them showed any significant inhibition	none of them showed any significant inhibition	none of them showed any significant inhibition	none of them showed any significant inhibition	none of them showed any significant inhibition	none of them showed any significant inhibition	none of them showed any significant inhibition	none of them showed any significant inhibition	none of them showed any significant inhibition	none of them showed any significant inhibition	–	–	–
CC(C)(C)OC(=O)N1CCC(CCCNc2ncnc3c2ncn3[C@@H]2O[C@H](CO)[C@@H](O)[C@H]2O)CC1 [Compound 39, tert-Butyl-4-(3-((9-((2R,3R,4S,5R)-3,4-dihydroxy-5-(hydroxymethyl)tetrahydrofuran-2-yl)-9H-purin-6-yl)amino)propyl)piperidine-1-carboxylate]	–	–	none of them showed any significant inhibition	none of them showed any significant inhibition	none of them showed any significant inhibition	none of them showed any significant inhibition	none of them showed any significant inhibition	none of them showed any significant inhibition	none of them showed any significant inhibition	none of them showed any significant inhibition	none of them showed any significant inhibition	none of them showed any significant inhibition	12 ×	~200 nM	~8 ×
